# Measured values taken from paper PMC11783601, “Analogue-Sensitive Inhibition of Histone Demethylases Uncovers Member-Specific Function in Ribosomal Protein Synthesis” (Journal of the American Chemical Society, 2025).
# Experiments:
# [1] = HPLC stability of compound in assay buffer; format: physicochemical; conditions: HPLC traces at t=0 hr. and t=5 hr. incubation; integrity confirmed by LC-MS
# Method: Supplementary Figure S13. HPLC traces of NOL 6 at t=0 hr. (red) and t=5 hr. (blue) incubation
# The compound integrity was further
# Supplementary Figure S14. MALDI-TOF spectra for demethylase activity of wild type KDM4C
# (A) and KDM4C-F187A mutant (B). In each case, topmost panel is assay without the cofactor
# 2OG (negative control), middle panel is assay with the cofactor (positive control) and the bottom
# mutant completely at 50 µM concentration (B). The demethylase activity of F187A mutant is
# (1 picture or pasted object on this page, not shown here)
# [2] = target: T1, KDM4A-F185A (Homo sapiens, UniProt O75164, F185A); assay: Coupled fluorescence end-point assay for IC50; format: biochemical
# T1 construct: human KDM4A-jmjC domain (catalytic domain of KDM4A); 6xHis (N); host or cells: E. coli BL21 (DE3)
# T1 sequence (O75164 142-308 F185A limits assumed): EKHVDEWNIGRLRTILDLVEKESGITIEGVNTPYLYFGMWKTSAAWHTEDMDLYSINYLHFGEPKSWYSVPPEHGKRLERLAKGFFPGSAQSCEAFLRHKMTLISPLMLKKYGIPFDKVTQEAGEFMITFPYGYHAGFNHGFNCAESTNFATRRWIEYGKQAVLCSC
# Method: To probe the efficacy of bulky NOGs against the mutant, the inhibitory constant at half-maximal (IC50) was determined by the coupled enzymatic assay using increasing amounts of the NOG analogue at fixed concentrations of cofactor and substrate.
# NADH (ACROS, cat #124530050) was added to assay buffer (50 mM HEPES pH 8, 50 µM (NH4)2Fe(SO4)2, 1 mM L-ascorbic acid, 1 mM NAD+, 200 nM FDH, and 1 µM KDM4A) in varying concentrations (0-10 µM). The experiments were performed in 384-well white Corning plates. The fluorescence intensity was measured with excitation = 340 nm and emission = 490 nm on a TECAN Infinite M1000Pro. Triplicate values were taken for each concentration.
# The set up and analysis for IC50 of L-Leu NOG against KDM4A F185A enzyme was similar to that described in the coupled fluorescence assay section, but adjusted to function as an end point assay. The assay composed of an enzyme cocktail (50mM HEPES pH 8.0, 75 µM (NH4)2Fe(SO4)2, 2 mM L-ascorbic acid, 1 mM NAD+, 200 nM FDH, 3 µM wild type KDM4A or KDM4A-F185A, and varying concentration of compounds (NOGs 6, 9 and 10) and a substrate cocktail (200 µM […]
# 2OG and 60 µM H3K9me3 peptide). […]
# IC50 measurements were performed in triplicates. The data was plotted in GraphPad Prism to the equation Y=Bottom + (Top-Bottom)/(1+10^(X-LogIC50)), where Y = % Activity, and Bottom and Top being the lower and upper most plateaus of percent activity, respectively. […]
compound,measurement,setting,value
"CC(C)CC(NC(=O)C(=O)O)C(=O)O (stereo not shown) [compound 6, N-oxalyl leucine]",stability of the compound in assay buffer,[1],confirm the stability
same,IC50,"[2]; dose-dependent inhibition of F185A, 200 µM 2OG, 60 µM H3K9me3 peptide",0.7 ± 0.1 µM
same,IC50,"[2]; time-dependent inhibition of F185A, 1 hour",0.7 ± 0.1 µM
same,IC50,"[2]; time-dependent inhibition of F185A, 2 hour",1.2 ± 0.2 µM
same,IC50,"[2]; time-dependent inhibition of F185A, 3 hour",1.5 ± 0.3 µM
same,IC50,"[2]; time-dependent inhibition of F185A, 4 hour",1.8 ± 0.5 µM
same,IC50,"[2]; time-dependent inhibition of F185A, 5 hour (text: monitored over more than 5 h)",2.2 ± 0.5 µM
